# pEC50: −log10 of the molar value.
# Target: T1, human β3 adrenergic receptor (Homo sapiens, UniProt P13945)
# T1 construct: expressed in transfected cells; host or cells: CHO (Chinese hamster ovary) cells, stably transfected
# Assay: Beta-3 agonist in vitro functional assay (cAMP production, LANCE, transfected CHO cells)
# Format: cell-based
# Conditions: Table 3, CHO cells with cloned β3 receptor, ligands titrated 10^-12 M to 10^-5 M, read-out: Human β3 agonist functional activity
# Procedure: Functional Assay: For compounds in examples 1-50, cAMP production in response to ligand is measured according to Barton, et al. (1991, Agonist-induced desensitization of D2 dopamine receptors in human Y-79 retinoblastoma cells. Mol. Pharmacol. […]:650-658) modified as follows. The cAMP production is measured using a homogenous time-resolved fluorescence resonance energy transfer immunoassay (LANCE™, Perkin Elmer) according to the manufacture's instructions. Chinese hamster ovary (CHO) cells, stably transfected with the cloned β-adrenergic receptor (β1, β2 or β3) are harvested after 3 days of subculturing. Harvesting of cells is done with Enzyme-free Dissociation Media (Specialty Media). Cells are then counted and resuspended in assay buffer (Hank's Balanced salt solution supplemented with 5 mM HEPES, […]) containing a phosphodiesterase inhibitor (IBMX, 0.6 mM). The reaction is initiated by mixing 6,000 cells in 6 μL with 6 μL Alexa Fluor labeled cAMP antibody (LANCE™ kit) which is then added to an assay well containing 12 μL of compound (diluted in assay buffer to 2× final concentration). The reaction proceeds for 30 minutes at RT and is terminated by the addition of 24 ul detection buffer (LANCE™ kit). The assay plate is then incubated for 1 h at RT and time-resolved fluorescence measured on a Perkin Elmer Envision reader or equivalent. The unknown cAMP level is determined by comparing fluorescence levels to a cAMP standard curve.
# The non-selective, full agonist β-adrenergic ligand isoproterenol is used at all three receptors to determine maximal stimulation. The human β3 adrenergic receptor (AR) selective ligand (S)-N-[4-[2-[[2-hydroxy-3-(4-hydroxyphenoxy)propyl]amino]ethyl]-phenyl]-4-iodobenzenesulfonamide is used as a control in all assays. […] The EC50 is defined as the concentration of compound that gives 50% activation of its own maximum. Data are analyzed using Microsoft Excel and Graphpad Prism or an internally developed data analysis software package.
# The EC50 is defined as the concentration of compound that gives 50% activation of its own maximum. Functional antagonist assays are performed similar to described above; however, unknown ligands are titrated at β-adrenergic receptor subtypes 1 and 2 at a final concentration in the assay of 10^-12 M to 10^-5 M in the presence of 10^-9 M full agonist β-adrenergic ligand isoproterenol. The EC50 is defined as the concentration of compound that gives 50% inhibition of the full agonist response. Data are analyzed using Microsoft Excel and Graphpad Prism or an internally developed data analysis software package.
# T1 sequence (P13945 whole entry): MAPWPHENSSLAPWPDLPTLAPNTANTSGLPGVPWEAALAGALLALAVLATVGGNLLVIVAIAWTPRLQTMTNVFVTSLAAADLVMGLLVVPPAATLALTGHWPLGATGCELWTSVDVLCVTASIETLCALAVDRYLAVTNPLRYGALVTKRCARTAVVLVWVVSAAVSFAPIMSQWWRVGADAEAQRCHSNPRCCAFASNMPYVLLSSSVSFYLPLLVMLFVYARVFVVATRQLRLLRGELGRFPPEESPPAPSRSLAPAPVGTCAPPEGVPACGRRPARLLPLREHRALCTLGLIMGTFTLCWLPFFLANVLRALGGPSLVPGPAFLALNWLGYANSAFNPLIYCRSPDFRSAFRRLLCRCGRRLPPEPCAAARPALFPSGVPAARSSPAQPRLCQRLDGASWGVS
row,pEC50,SMILES
1,6.00 to 7.00,CN(Cc1cc2ccccc2cn1)C(=O)c1ccc(C[C@@H]2CC[C@H]([C@H](O)c3ccccc3)N2)cc1 [Example 52]
2,7.00 to 8.00,CN(CCc1cccnc1)C(=O)c1ccc(C[C@@H]2CC[C@H]([C@H](O)c3ccccc3)N2)cc1 [Example 53]
3,6.00 to 7.00,CN(Cc1ccccn1)C(=O)c1ccc(C[C@@H]2CC[C@H]([C@H](O)c3ccccc3)N2)cc1 [Example 54]
4,6.00 to 7.00,CN(Cc1cccnn1)C(=O)c1ccc(C[C@@H]2CC[C@H]([C@H](O)c3ccccc3)N2)cc1 [Example 55]
5,7.00 to 8.00,CN(Cc1cccnn1)C(=O)c1ccc(C[C@@H]2CC[C@H]([C@H](O)c3ccc(N)nc3)N2)cc1 [Example 56]
6,7.00 to 8.00,CN(Cc1cc(Br)ccn1)C(=O)c1ccc(C[C@@H]2CC[C@H]([C@H](O)c3ccccc3)N2)cc1 [Example 57]
7,7.00 to 8.00,CN(Cc1cnn(-c2ccccc2)n1)C(=O)c1ccc(C[C@@H]2CC[C@H]([C@H](O)c3ccccc3)N2)cc1 [Example 58]
8,8.00 to 9.00,CN(Cc1cccc(F)c1)C(=O)c1ccc(C[C@@H]2CC[C@H]([C@H](O)c3ccccc3)N2)cc1 [Example 60]
9,8.00 to 9.00,CN(Cc1cnc2ccccc2n1)C(=O)c1ccc(C[C@@H]2CC[C@H]([C@H](O)c3ccccc3)N2)cc1 [Example 61]
10,7.00 to 8.00,Cc1cccnc1CN(C)C(=O)c1ccc(C[C@@H]2CC[C@H]([C@H](O)c3ccccc3)N2)cc1 [Example 62]
11,7.00 to 8.00,COCCN(C)C(=O)c1ccc(C[C@@H]2CC[C@H]([C@H](O)c3ccccc3)N2)cc1 [Example 64]
12,7.00 to 8.00,COc1ccccc1CN(C)C(=O)c1ccc(C[C@@H]2CC[C@H]([C@H](O)c3ccccc3)N2)cc1 [Example 65]
13,7.00 to 8.00,Cc1nc(CN(C)C(=O)c2ccc(C[C@@H]3CC[C@H]([C@H](O)c4ccccc4)N3)cc2)cs1 [Example 66]
14,7.00 to 8.00,Cc1cccc(CN(C)C(=O)c2ccc(C[C@@H]3CC[C@H]([C@H](O)c4ccccc4)N3)cc2)n1 [Example 67]
15,6.00 to 7.00,CN(Cc1nc2ccccc2n1C)C(=O)c1ccc(C[C@@H]2CC[C@H]([C@H](O)c3ccccc3)N2)cc1 [Example 70]
16,7.00 to 8.00,CN(Cc1nnn(C)n1)C(=O)c1ccc(C[C@@H]2CC[C@H]([C@H](O)c3ccccc3)N2)cc1 [Example 72]
17,6.00 to 7.00,CN(Cc1ncn(C)n1)C(=O)c1ccc(C[C@@H]2CC[C@H]([C@H](O)c3ccccc3)N2)cc1 [Example 73]
18,7.00 to 8.00,CN(Cc1cnccn1)C(=O)c1ccc(C[C@@H]2CC[C@H]([C@H](O)c3ccccc3)N2)cc1 [Example 74]
19,8.00 to 9.00,CN(Cc1nn(C)c(Cl)c1Cl)C(=O)c1ccc(C[C@@H]2CC[C@H]([C@H](O)c3ccccc3)N2)cc1 [Example 75]
20,6.00 to 7.00,CN(Cc1nccn1C)C(=O)c1ccc(C[C@@H]2CC[C@H]([C@H](O)c3ccccc3)N2)cc1 [Example 76]
21,7.00 to 8.00,CN(Cc1cccc(Br)n1)C(=O)c1ccc(C[C@@H]2CC[C@H]([C@H](O)c3ccccc3)N2)cc1 [Example 77]
22,7.00 to 8.00,CN(Cc1ccc(Br)cn1)C(=O)c1ccc(C[C@@H]2CC[C@H]([C@H](O)c3ccccc3)N2)cc1 [Example 78]
23,6.00 to 7.00,CN(Cc1ccncn1)C(=O)c1ccc(C[C@@H]2CC[C@H]([C@H](O)c3ccccc3)N2)cc1 [Example 79]

row,pEC50,SMILES
1,8.00 to 9.00,CC(C)c1nccc(CN(C)C(=O)c2ccc(C[C@@H]3CC[C@H]([C@H](O)c4ccccc4)N3)cc2)n1 [Example 80]
2,7.00 to 8.00,Cc1nccc(CN(C)C(=O)c2ccc(C[C@@H]3CC[C@H]([C@H](O)c4ccccc4)N3)cc2)n1 [Example 81]
3,7.00 to 8.00,Cc1cc(CN(C)C(=O)c2ccc(C[C@@H]3CC[C@H]([C@H](O)c4ccccc4)N3)cc2)on1 [Example 82]
4,6.00 to 7.00,CN(Cc1cccc(N2CCCC2)n1)C(=O)c1ccc(C[C@@H]2CC[C@H]([C@H](O)c3ccccc3)N2)cc1 [Example 83]
5,6.00 to 7.00,CN(Cc1nc2ccccc2[nH]1)C(=O)c1ccc(C[C@@H]2CC[C@H]([C@H](O)c3ccccc3)N2)cc1 [Example 84]
6,> 9.00,CN(Cc1n[nH]c2c1CCCC2)C(=O)c1ccc(C[C@@H]2CC[C@H]([C@H](O)c3ccccc3)N2)cc1 [Example 85]
7,7.00 to 8.00,CN(Cc1ccon1)C(=O)c1ccc(C[C@@H]2CC[C@H]([C@H](O)c3ccccc3)N2)cc1 [Example 86]
8,8.00 to 9.00,O=C(c1ccc(C[C@@H]2CC[C@H]([C@H](O)c3ccccc3)N2)cc1)N(CCO)Cc1ccccc1F [Example 87]
9,7.00 to 8.00,Cc1csc(CCN(C)C(=O)c2ccc(C[C@@H]3CC[C@H]([C@H](O)c4ccccc4)N3)cc2)n1 [Example 88]
10,7.00 to 8.00,CC(C)c1nc(CCN(C)C(=O)c2ccc(C[C@@H]3CC[C@H]([C@H](O)c4ccccc4)N3)cc2)no1 [Example 89]
11,> 9.00,COCc1cc(CN(C)C(=O)c2ccc(C[C@@H]3CC[C@H]([C@H](O)c4ccccc4)N3)cc2)n[nH]1 [Example 90]
12,7.00 to 8.00,CN(Cc1ccc2nccnc2c1)C(=O)c1ccc(C[C@@H]2CC[C@H]([C@H](O)c3ccccc3)N2)cc1 [Example 92]
13,7.00 to 8.00,CC(C)c1noc(CN(C)C(=O)c2ccc(C[C@@H]3CC[C@H]([C@H](O)c4ccccc4)N3)cc2)n1 [Example 93]
14,7.00 to 8.00,CN(Cc1cnn(-c2ccccc2)c1)C(=O)c1ccc(C[C@@H]2CC[C@H]([C@H](O)c3ccccc3)N2)cc1 [Example 97]
15,6.00 to 7.00,Cc1cc2nc(CN(C)C(=O)c3ccc(C[C@@H]4CC[C@H]([C@H](O)c5ccccc5)N4)cc3)[nH]c2cc1C [Example 101]
16,6.00 to 7.00,CN(Cc1nc(-c2ccncc2)no1)C(=O)c1ccc(C[C@@H]2CC[C@H]([C@H](O)c3ccccc3)N2)cc1 [Example 103]
17,7.00 to 8.00,CCN(Cc1ccnc(C(C)C)n1)C(=O)c1ccc(C[C@@H]2CC[C@H]([C@H](O)c3ccccc3)N2)cc1 [Example 104]
18,7.00 to 8.00,CN(Cc1ncccc1F)C(=O)c1ccc(C[C@@H]2CC[C@H]([C@H](O)c3ccccc3)N2)cc1 [Example 106]
19,6.00 to 7.00,CN(Cc1cc(-c2ccncc2)on1)C(=O)c1ccc(C[C@@H]2CC[C@H]([C@H](O)c3ccccc3)N2)cc1 [Example 107]
20,6.00 to 7.00,CN(Cc1cscn1)C(=O)c1ccc(C[C@@H]2CC[C@H]([C@H](O)c3ccccc3)N2)cc1 [Example 108]
21,6.00 to 7.00,CN(Cc1cccc2ncccc12)C(=O)c1ccc(C[C@@H]2CC[C@H]([C@H](O)c3ccccc3)N2)cc1 [Example 109]
22,7.00 to 8.00,CN(Cc1noc(C2CC2)n1)C(=O)c1ccc(C[C@@H]2CC[C@H]([C@H](O)c3ccccc3)N2)cc1 [Example 112]
23,7.00 to 8.00,CN(Cc1ncc[nH]1)C(=O)c1ccc(C[C@@H]2CC[C@H]([C@H](O)c3ccccc3)N2)cc1 [Example 113]

row,SMILES,pEC50
1,CN(Cc1cccnc1)C(=O)c1ccc(C[C@@H]2CC[C@H]([C@H](O)c3ccc(N)nc3)N2)cc1 [Example 59],> 9.00
2,CN(Cc1ccccc1)C(=O)c1ccc(C[C@@H]2CC[C@H]([C@H](O)c3ccccc3)N2)cc1 [Example 68],6.00 to 7.00
3,CN(C)C(=O)c1ccc(C[C@@H]2CC[C@H]([C@H](O)c3ccccc3)N2)cc1 [Example 69],7.00 to 8.00
4,CN(Cc1ccncc1)C(=O)c1ccc(C[C@@H]2CC[C@H]([C@H](O)c3ccccc3)N2)cc1 [Example 71],6.00 to 7.00
5,CN(CCC1CCOCC1)C(=O)c1ccc(C[C@@H]2CC[C@H]([C@H](O)c3ccccc3)N2)cc1 [Example 99],6.00 to 7.00

# Reference: patent publication US8604038B2, “Pyrrolidine derived beta 3 adrenergic receptor agonists” (Merck Sharp & Dohme Corp., priority 2009, dated 2013)
